What was measured:
[1] = tested on: rats with a lung injury; test: Histopathological examination of lung, 5-grade method (Example 2); type: in vivo, Sprague-Dawley rats
Experimental: (§1) D0: The animals in the normal control group were intraperitoneally injected with sodium chloride injection (1 ml/kg), while the animals in other groups were intraperitoneally injected with lipopolysaccharides (1 mg/kg, 1 ml/kg).
(§2) D1: After 16 h (+30 min) of intraperitoneal injection, the animals were anesthetized by inhaling isoflurane. The animals in the normal control group were nebulized with sodium chloride injection (1 mL/kg) in the trachea, while the animals in other groups were nebulized with lipopolysaccharides (5 mg/kg, 1 ml/kg) in the trachea.
(§3) Administration frequency and duration: On D1, the animals were administered for the first time within 3 h after the intratracheal nebulization with the modeling reagent (LPS); and on D2, the animals were administered for the second time. The interval between the two administrations was about 24 h (+20 min).
General observation: All animals in each group (including dead animals) were dissected and their tissues were stored. The animals that died during non-working hours were stored in the 2° C.-8° C. refrigerator and dissected as soon as possible within 24 hours. After dissecting and retaining tissues, animal carcasses were disposed of as medical waste.
During the autopsy, whether the lungs, trachea, and bronchi of the animals were abnormal were observed. The middle lobe of the right lung was incised and weighed for calculating a wet/dry weight ratio. The remaining tissues and bronchi of the right lung were fixed in a 10% neutral buffered formalin solution, followed by paraffin embedding, slicing, section preparation, and HE staining for pathological morphological observation of lung tissues. Standard terminologies were used for diagnosis and classification, and the lung tissues were pathologically examined by a 5-grade method (slight, mild, moderate, obvious, and severe).

[2] = tested on: rats with a lung injury; test: Wet/dry ratio of the lung (Example 2); type: in vivo, Sprague-Dawley rats
Experimental: as §1, §2, §3
During the autopsy, whether the lungs, trachea, and bronchi of the animals were abnormal were observed. […]
Foreign matters such as blood and tissue fluid on the surface of the middle lobe tissues of the right lung were wiped with a paper towel, the right lung was weighed, then the middle lobe tissues of the right lung were placed in a 60° C. oven for 72 h, the right lung was weighed again, and the wet/dry weight ratio of the lung was calculated. […]

[3] = tested on: rats with a lung injury; test: BALF white blood cell count and classification (Example 2); type: in vivo, Sprague-Dawley rats; settings: D3, 0.75 mg/kg i.v. twice, 6 rats, x ± SD
Experimental: as §1, §2, §3
Sample collection: After the animals were euthanatized, the skin and tissues of the neck and chest were incised to expose the trachea, bronchi, and lungs. The bronchi in the right lung were separated and ligated. A suture was threaded under the trachea, a ½ incision was made between cartilage rings of the trachea at an appropriate position under the thyroid cartilage, a trachea cannula was slowly inserted along the incision into the airway to a left bronchus, and the inserted cannula was fastened with the trachea by using the threaded suture at an appropriate position in a centripetal direction of the incision. 3 ml of PBS buffer was slowly injected with a syringe for bronchoalveolar lavage. The lavage was repeated 3 times, with each remaining for about 10 seconds. The lavage solution was collected into a centrifuge tube of appropriate capacity.
BALF treatment: The collected lavage solution was centrifuged at 4° C. and approximately 2000 rpm for 20 min. The supernatant was stored below −60° C. for later use. The precipitate was re-suspended with I mL of PBS buffer for count and classification of white blood cells. The supernatant after BALF centrifugation was managed as a sample by using a Watson LIMS7.5 system.
Classification and test of white blood cells: White blood cells in the re-suspended BALF were counted and classified by a fully automatic blood cell analyzer.

[4] = tested on: rats with a lung injury; test: Blood gas test, LPS lung injury rats (Example 2); type: in vivo, Sprague-Dawley rats
Experimental: as §1, §2, §3
Test time: the day after the second administration (D3)
Sample collection: The rats were anesthetized by intraperitoneal injection with chloral hydrate (350 mg/kg, 100 mg/mL), and their abdominal midline was longitudinally incised to separate the abdominal aorta. About 0.2 mL of arterial blood was collected with an arterial blood sampler. A syringe in the blood sampler was rubbed in the palm and turned upside down for 5 seconds to ensure that the blood was never returned to the blood sampler for blood mixing treatment.
Testing method: After the arterial blood was collected, a needle was gently inserted into a blood injection port of a test card, and the blood was gently pushed in and filled a sample filling tube. When the blood reached an adding position, the adding of the sample was stopped, a lid was closed, and the blood automatically entered the test tube. The test card was inserted into a blood gas analyzer to wait for test results.
Test indicators: PO2 (mmHg), PCO2 (mmHg), pH, and sO2%.

[5] = Body weight of rats after LPS modeling (Example 1); type: in vivo
Experimental: Normal adult male SD rats were randomly grouped, 5 rats in each group. The animals were intraperitoneally injected and nebulized in the trachea with lipopolysaccharides (LPS) as a modeling reagent, as shown in Table 1:
The animals in groups G1 and G2 were intraperitoneally injected with lipopolysaccharides (0.8 mg/kg. body weight) according to their body weight, anesthetized by inhaling isoflurane after 16 h of the intraperitoneal injection, and nebulized with lipopolysaccharides (5 mg/kg. body weight) in the trachea.
The animals were administered for the first time within 1 h after the intratracheal nebulization with the modeling reagent (LPS), and the second time after 24 h.
Before grouping, the animals were weighed on the day of modeling and the day of administration of samples; and the animals were also weighed when they were found dead or on the brink of euthanasia.

[6] = ++ = mild, test sample group, 6 rats, 0.75 mg/kg
[7] = +++ = moderate, test sample group, 6 rats, 0.75 mg/kg
[8] = ++++ = obvious, test sample group, 6 rats, 0.75 mg/kg
[9] = +++++ = severe, test sample group, 6 rats, 0.75 mg/kg
[10] = test sample group vs model control group
[11] = − = no lesion, test sample group, 6 rats, 0.75 mg/kg
[12] = arterial blood, D3, 0.75 mg/kg i.v. twice, 6 rats, x ± SD

Annexin A5
Bleeding of the lung under a microscope ([1]; 0.75 mg/kg i.v. twice, D3): mildly
Infiltration of the lung by inflammatory cells under a microscope ([1]; 0.75 mg/kg i.v. twice, D3): moderately to obviously
Proliferation of alveolar epithelial cells under a microscope ([1]; 0.75 mg/kg i.v. twice, D3): mild to moderate
Degree of alveolar wall thickening lesion: number of animals with grade ++ [1, 6]: 3
Degree of inflammatory cell infiltrating lesion: number of animals with grade ++ [1, 6]: 0
Degree of alveolar wall thickening lesion: number of animals with grade +++ [1, 7]: 3
Degree of inflammatory cell infiltrating lesion: number of animals with grade +++ [1, 7]: 2
Degree of alveolar wall thickening lesion: number of animals with grade ++++ [1, 8]: 0
Degree of inflammatory cell infiltrating lesion: number of animals with grade ++++ [1, 8]: 4
Degree of alveolar wall thickening lesion: number of animals with grade +++++ [1, 9]: 0
Degree of inflammatory cell infiltrating lesion: number of animals with grade +++++ [1, 9]: 0
Change of inflammatory cell infiltrating lesions ([1]; in all rats, vs model): changed from severe and obvious to obvious and moderate
Change of alveolar wall thickness ([1]; in half of the rats, vs model): changed from moderate to mild
Degree of lung lesions [1, 10]: lower than that of the model control group
Degree of alveolar wall thickening lesion: number of animals with grade − [1, 11]: 0
Degree of inflammatory cell infiltrating lesion: number of animals with grade − [1, 11]: 0
Wet/dry ratio of the lung ([2]; middle lobe of right lung, 0.75 mg/kg i.v. twice, 6 rats, x ± SD): 4.68 ± 0.08
Change of wet/dry ratio of the lung ([2]; test sample group): decreased
Lymphocytes in BALF [3]: 0.58 ± 0.22 ×10^9 cells/L
Monocytes in BALF [3]: 0.38 ± 0.47 ×10^9 cells/L
Neutrophils in BALF [3]: 2.54 ± 2.07 ×10^9 cells/L
White blood cell in BALF [3]: 3.63 ± 2.05 ×10^9 cells/L
PCO2 [4, 12]: 46.63 ± 6.17 mmHg
PO2 [4, 12]: 82.5 ± 8.7 mmHg
pH [4, 12]: 7.372 ± 0.049
sO2 % [4, 12]: 95.5 ± 1.0 %
Change in the pH indicator ([4]; test sample group): no significant change
Change of PO2, sO2% and PCO2 after administration [4, 10]: all increased with statistical differences
Body weight, Day 0 ([5]; G2 mean, 5 rats, 1 mg/kg caudal vein injection, Day 0): 254.49 g
Body weight, Day 1 ([5]; G2 mean, 5 rats, 1 mg/kg caudal vein injection, Day 1): 240.80 g
Body weight, Day 2 ([5]; G2 mean, 5 rats, 1 mg/kg caudal vein injection, Day 2): 224.36 g
Body weight, Day 3 ([5]; G2 mean, 5 rats, 1 mg/kg caudal vein injection, Day 3): 241.86 g
Body weight compared between groups ([5]; after LPS modeling, G2 vs G1): no significant difference between the groups
